Values belong to the compound of their own block, whether it stands above or below them.
Columns and labels:
PmGH [1] = target: T1, PmGH (Persephonella marina, UniProt C0QQ26, C41A/C197A); assay: X-ray crystal structure (crystal soak), […] A; assay type: binding; conditions: crystals soaked with 30 mM GMP; tri-iron centre intact; active site, phosphate bridges M and H iron sites; monomer B only
T1 construct: gene PERMA_0986; GAF + HD-GYP domains; synthetic gene in pET47b, E. coli BL21(DE3); N-terminal His6 tag cut with HRV 3C; homodimer; tri-iron centre
T1 sequence (C0QQ26 entry or part of it C41A/C197A): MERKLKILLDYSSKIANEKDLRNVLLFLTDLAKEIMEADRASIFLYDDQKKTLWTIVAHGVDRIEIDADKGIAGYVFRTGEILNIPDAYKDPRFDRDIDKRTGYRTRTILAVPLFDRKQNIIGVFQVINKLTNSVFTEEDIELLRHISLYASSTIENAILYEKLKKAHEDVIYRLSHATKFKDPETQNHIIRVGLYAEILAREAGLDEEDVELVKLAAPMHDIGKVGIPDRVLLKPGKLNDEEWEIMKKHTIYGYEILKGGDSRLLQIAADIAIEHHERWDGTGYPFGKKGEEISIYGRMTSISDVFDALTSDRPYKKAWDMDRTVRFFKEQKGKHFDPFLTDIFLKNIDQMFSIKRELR

PmGH [2] = target: T2, PmGH (Persephonella marina, UniProt C0QQ26, C41A/E185A/C197A); assay: HPLC phosphodiesterase assay; assay type: biochemical; conditions: 100 uM c-di-GMP, pH 7.6, 10 mM MgCl2, 10 mM MnCl2, 0.5 mM EDTA, 37 C
T2 construct: gene PERMA_0986; GAF + HD-GYP domains; synthetic gene in pET47b, E. coli BL21(DE3); N-terminal His6 tag cut with HRV 3C; homodimer; tri-iron centre
T2 sequence (C0QQ26 entry or part of it C41A/E185A/C197A): as the sequence (C0QQ26 entry or part of it C41A/C197A) above, with E185A counted along it

PmGH [3] = target: T3, PmGH (Persephonella marina, UniProt C0QQ26, C41A/C197A/D305A); assay: HPLC phosphodiesterase assay; assay type: biochemical; conditions: 100 uM c-di-GMP, pH 7.6, 10 mM MgCl2, 10 mM MnCl2, 0.5 mM EDTA, 37 C
T3 construct: gene PERMA_0986; GAF + HD-GYP domains; synthetic gene in pET47b, E. coli BL21(DE3); N-terminal His6 tag cut with HRV 3C; homodimer; tri-iron centre
T3 sequence (C0QQ26 entry or part of it C41A/C197A/D305A): as the sequence (C0QQ26 entry or part of it C41A/C197A) above, with D305A counted along it

PmGH [4] = target: T1, PmGH; assay: X-ray crystal structure (crystal soak), […] A; hydrolysis in solution shown by HPLC; assay type: binding; conditions: crystals soaked with 25 mM c-di-GMP and 100 mM EDTA; only G-site Fe bound; bound to monomer B only, HD-GYP active site
[5] = target: GAF/HD-GYP protein from Persephonella marina EX-H1 (PmGH) (Persephonella marina EX-H1) (UniProt C0QQ26); assay: crystal structure; hanging drop vapour diffusion, 0.1 M MES pH 6.5, 0.9 M succinic acid, 2% PEG 2000; space group I222 with one dimer in the asymmetric unit; native structure at 2.03 Å

Compound: Nc1nc2c(ncn2[C@@H]2O[C@H](COP(=O)(O)O)[C@@H](O)[C@H]2O)c(=O)[nH]1 [GMP]
- X-ray crystal structure (crystal soak), 2.55 A (PmGH [1]): Crystal soaks with GMP and c‐di‐GMP gave identical structures of PmGH in complex with GMP

Compound: Nc1nc2c(ncn2[C@@H]2O[C@@H]3COP(=O)(O)O[C@H]4[C@@H](O)[C@H](n5cnc6c(=O)[nH]c(N)nc65)O[C@@H]4COP(=O)(O)O[C@H]3[C@H]2O)c(=O)[nH]1 [c-di-GMP]
- c-di-GMP hydrolysis (PmGH [2]): marked reduction in their ability to hydrolyse c‐di‐GMP, hydrolysis of c‐di‐GMP is still detected
- c-di-GMP hydrolysis (PmGH [3]): marked reduction in their ability to hydrolyse c‐di‐GMP, hydrolysis of c‐di‐GMP is still detected
- X-ray crystal structure (crystal soak), 2.68 A; hydrolysis in solution shown by (PmGH [4]): revealed well defined difference electron density for a bound c‐di‐GMP molecule at the active site

- stoichiometry N [5]: 2
Compound: GAF/HD-GYP protein from Persephonella marina EX-H1 (PmGH) (from UniProt C0QQ26 2-363) (enzyme)

Reference: paper PMC4159591, “Crystal structure of an HD‐GYP domain cyclic‐di‐GMP phosphodiesterase reveals an enzyme with a novel trinuclear catalytic iron centre” (Molecular Microbiology, 2013)
